Results taken from ChEMBL document CHEMBL1909046, “DrugMatrix in vitro pharmacology data”.

Columns and labels:
[1] = molecular target: T1, Cholecystokinin receptor type A (Homo sapiens, UniProt P32238); type: cell membranes, Membrane; conditions: 1321-n1; note: in other assays of this panel Not Active means under 50% inhibition at 10 µM
T1 sequence (P32238 whole entry): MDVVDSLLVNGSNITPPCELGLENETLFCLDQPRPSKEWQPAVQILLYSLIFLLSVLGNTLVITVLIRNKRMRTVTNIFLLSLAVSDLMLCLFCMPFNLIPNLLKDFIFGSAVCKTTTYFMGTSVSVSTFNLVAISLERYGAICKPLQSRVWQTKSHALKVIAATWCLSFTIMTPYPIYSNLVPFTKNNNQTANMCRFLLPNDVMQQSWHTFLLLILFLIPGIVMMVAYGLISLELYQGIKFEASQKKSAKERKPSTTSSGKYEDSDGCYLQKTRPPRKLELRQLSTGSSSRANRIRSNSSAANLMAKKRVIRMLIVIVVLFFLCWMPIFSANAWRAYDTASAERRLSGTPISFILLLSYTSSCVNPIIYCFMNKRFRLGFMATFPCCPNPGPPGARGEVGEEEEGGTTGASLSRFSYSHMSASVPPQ

[2] = molecular target: cGMP-specific 3',5'-cyclic phosphodiesterase (Homo sapiens, UniProt O76074); test: DRUGMATRIX: Phosphodiesterase PDE5 enzyme inhibition (substrate: [3H]cGMP + cGMP); type: tissue-based, Platelet; conditions: platelet; Not Active = under 50% inhibition at 10 µM
[3] = DRUGMATRIX: Sigma2 radioligand binding (ligand: [3H] Ifenprodil); type: cell membranes, Rattus norvegicus, Wistar, Brain, Membrane; conditions: Not Active = under 50% inhibition at 10 µM
Adenosine receptor A2a = Adenosine receptor A2a (Homo sapiens, UniProt P29274); test: DRUGMATRIX: Adenosine A2A radioligand binding (ligand: […]); type: cell membranes, HEK293, Membrane; conditions: hek293; Not Active = under 50% inhibition at 10 µM
Sequence of Adenosine receptor A2a (P29274 whole entry): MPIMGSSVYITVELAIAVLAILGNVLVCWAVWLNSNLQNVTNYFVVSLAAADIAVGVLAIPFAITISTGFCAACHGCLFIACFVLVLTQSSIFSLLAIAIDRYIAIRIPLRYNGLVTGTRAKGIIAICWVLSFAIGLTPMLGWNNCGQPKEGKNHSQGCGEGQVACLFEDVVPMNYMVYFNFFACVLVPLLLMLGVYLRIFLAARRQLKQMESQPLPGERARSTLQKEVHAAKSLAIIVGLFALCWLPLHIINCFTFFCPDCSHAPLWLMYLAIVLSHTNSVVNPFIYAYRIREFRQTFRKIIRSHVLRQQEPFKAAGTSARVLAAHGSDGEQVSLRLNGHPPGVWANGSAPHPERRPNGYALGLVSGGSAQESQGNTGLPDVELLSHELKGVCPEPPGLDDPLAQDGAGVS

[4] = molecular target: C-C chemokine receptor type 2 (Homo sapiens, UniProt P41597); type: cell membranes, Membrane; conditions: cho-k1; note: in other assays of this panel Not Active means under 50% inhibition at 10 µM
Sequence of C-C chemokine receptor type 2 (P41597 whole entry): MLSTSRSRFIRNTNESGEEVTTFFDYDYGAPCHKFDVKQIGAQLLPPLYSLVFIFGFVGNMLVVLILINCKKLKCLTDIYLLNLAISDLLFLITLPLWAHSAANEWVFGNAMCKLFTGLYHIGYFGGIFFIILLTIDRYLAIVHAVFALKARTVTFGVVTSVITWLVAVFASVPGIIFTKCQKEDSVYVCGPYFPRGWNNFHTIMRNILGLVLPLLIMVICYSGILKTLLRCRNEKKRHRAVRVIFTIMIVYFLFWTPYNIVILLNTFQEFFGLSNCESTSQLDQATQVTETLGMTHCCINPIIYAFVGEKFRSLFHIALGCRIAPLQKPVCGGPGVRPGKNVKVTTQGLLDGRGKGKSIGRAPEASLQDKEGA

[5] = molecular target: Receptor tyrosine-protein kinase erbB-2 (Homo sapiens, UniProt P04626); test: biochemical; type: cell-based, Insect cells; conditions: insect cells;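 note: inhibition of HER2 kinase enzyme activity, measured with Poly(Glu:Tyr) as the phosphorylation substrate; in other assays of this panel Not Active means under 50% inhibition at 10 µM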
Sequence of Receptor tyrosine-protein kinase erbB-2 (P04626 whole entry): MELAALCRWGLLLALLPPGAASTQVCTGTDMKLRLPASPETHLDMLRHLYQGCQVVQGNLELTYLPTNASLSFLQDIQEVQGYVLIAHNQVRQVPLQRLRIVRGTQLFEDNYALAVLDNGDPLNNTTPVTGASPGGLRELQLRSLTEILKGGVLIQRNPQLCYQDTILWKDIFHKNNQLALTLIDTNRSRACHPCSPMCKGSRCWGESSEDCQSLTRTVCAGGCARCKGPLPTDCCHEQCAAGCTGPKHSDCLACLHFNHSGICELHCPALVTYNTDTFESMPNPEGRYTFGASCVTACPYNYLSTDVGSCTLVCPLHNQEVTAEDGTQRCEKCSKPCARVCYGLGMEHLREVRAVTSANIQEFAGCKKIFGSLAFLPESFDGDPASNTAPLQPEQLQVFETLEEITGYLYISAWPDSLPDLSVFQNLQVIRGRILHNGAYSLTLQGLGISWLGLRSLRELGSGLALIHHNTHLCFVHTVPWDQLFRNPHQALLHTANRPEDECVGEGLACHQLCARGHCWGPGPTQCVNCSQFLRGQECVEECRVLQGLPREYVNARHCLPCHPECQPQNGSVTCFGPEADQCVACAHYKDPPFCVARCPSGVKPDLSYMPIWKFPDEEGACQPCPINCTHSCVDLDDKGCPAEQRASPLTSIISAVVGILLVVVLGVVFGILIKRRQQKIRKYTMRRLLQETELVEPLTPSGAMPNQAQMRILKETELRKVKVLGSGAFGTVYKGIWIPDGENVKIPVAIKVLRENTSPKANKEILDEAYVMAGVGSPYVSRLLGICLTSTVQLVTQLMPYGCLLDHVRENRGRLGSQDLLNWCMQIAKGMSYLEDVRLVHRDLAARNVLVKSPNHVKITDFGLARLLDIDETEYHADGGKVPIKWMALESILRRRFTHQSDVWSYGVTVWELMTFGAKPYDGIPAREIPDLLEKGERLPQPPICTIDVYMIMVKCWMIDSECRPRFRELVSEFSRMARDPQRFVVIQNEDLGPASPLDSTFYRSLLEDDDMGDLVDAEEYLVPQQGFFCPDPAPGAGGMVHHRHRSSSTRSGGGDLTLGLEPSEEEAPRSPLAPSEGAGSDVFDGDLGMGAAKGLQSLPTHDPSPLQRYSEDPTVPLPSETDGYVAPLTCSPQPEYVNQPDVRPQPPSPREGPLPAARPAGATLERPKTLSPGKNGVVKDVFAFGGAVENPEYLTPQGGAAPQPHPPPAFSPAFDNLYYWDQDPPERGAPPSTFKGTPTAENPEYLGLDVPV

[6] = molecular target: T2, Cysteinyl leukotriene receptor 1 (Homo sapiens, UniProt Q9Y271); type: cell membranes, Membrane; conditions: cho-k1; note: in other assays of this panel Not Active means under 50% inhibition at 10 µM
T2 sequence (Q9Y271 whole entry): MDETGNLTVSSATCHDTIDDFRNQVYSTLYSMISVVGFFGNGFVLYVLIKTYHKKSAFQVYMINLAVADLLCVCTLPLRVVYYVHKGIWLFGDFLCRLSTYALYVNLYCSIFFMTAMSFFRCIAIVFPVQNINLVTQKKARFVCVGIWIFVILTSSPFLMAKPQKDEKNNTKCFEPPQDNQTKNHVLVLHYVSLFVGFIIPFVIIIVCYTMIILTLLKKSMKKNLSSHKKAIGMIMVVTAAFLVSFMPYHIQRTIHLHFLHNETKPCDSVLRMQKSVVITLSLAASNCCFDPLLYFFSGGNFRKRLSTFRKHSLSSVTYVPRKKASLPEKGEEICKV

CC(O)COC[C@H]1O[C@@H]2O[C@H]3[C@H](O)[C@@H](O)[C@@H](O[C@H]4[C@H](O)[C@@H](O)[C@@H](O[C@H]5[C@H](O)[C@@H](O)[C@@H](O[C@H]6[C@H](O)[C@@H](O)[C@@H](O[C@H]7[C@H](O)[C@@H](O)[C@@H](O[C@H]8[C@H](O)[C@@H](O)[C@@H](O[C@H]1[C@H](O)[C@H]2O)O[C@@H]8COCC(C)O)O[C@@H]7COCC(C)O)O[C@@H]6COCC(C)O)O[C@@H]5COCC(C)O)O[C@@H]4COCC(C)O)O[C@@H]3COCC(C)O (stereo partly drawn) [2-HYDROXYPROPYL-BETA-CYCLODEXTRIN]
Not Active: IC50 [1] | IC50 [2] | IC50 [3] | Ki [3] | IC50 (Adenosine receptor A2a) | IC50 [4] | IC50 [5] | IC50 [6]

C[C@]12CC[C@@H]3c4ccc(O)cc4CC[C@H]3[C@@H]1C[C@@H](O)[C@@H]2O [ESTRIOL]
Not Active: IC50 [1] | IC50 [2] | IC50 [3] | Ki [3] | IC50 (Adenosine receptor A2a) | IC50 [4] | IC50 [5] | IC50 [6]

O=C(O)P(=O)(O)O [FOSCARNET]
Not Active: IC50 [1] | IC50 [2] | IC50 [3] | Ki [3] | IC50 (Adenosine receptor A2a) | IC50 [4] | IC50 [5] | IC50 [6]

CC1=NN(c2ccccc2)C(=O)C1 [EDARAVONE]
Not Active: IC50 [1] | IC50 [2] | IC50 [3] | Ki [3] | IC50 (Adenosine receptor A2a) | IC50 [4] | IC50 [5] | IC50 [6]

CCCNC(C)C(=O)Nc1ccccc1C (stereo not drawn) [PRILOCAINE]
Not Active: IC50 [1] | IC50 [2] | IC50 [3] | Ki [3] | IC50 (Adenosine receptor A2a) | IC50 [4] | IC50 [5] | IC50 [6]

C[C@@H]1C/C=C/C=C/C=C/C=C/[C@H](O[C@@H]2O[C@H](C)[C@@H](O)[C@H](N)[C@@H]2O)C[C@@H]2O[C@](O)(C[C@@H](O)C[C@H]3O[C@@H]3/C=C/C(=O)O1)C[C@H](O)[C@H]2C(=O)O [NATAMYCIN]
Not Active: IC50 [1] | IC50 [2] | IC50 [3] | Ki [3] | IC50 (Adenosine receptor A2a) | IC50 [4] | IC50 [5] | IC50 [6]

C[C@H]1O[C@H](O[C@H]2[C@H](O)[C@@H](O)[C@@H](O[C@H]3[C@H](O)[C@@H](O)C(O)O[C@@H]3CO)O[C@@H]2CO)[C@H](O)[C@@H](O)[C@@H]1N[C@H]1C=C(CO)[C@@H](O)[C@H](O)[C@H]1O (stereo partly drawn) [ACARBOSE]
Not Active: IC50 [1] | IC50 [2] | IC50 [3] | Ki [3] | IC50 (Adenosine receptor A2a) | IC50 [4] | IC50 [5] | IC50 [6]

CN(C)C(=N)NC(=N)N [METFORMIN]
Not Active: IC50 [1] | IC50 [2] | IC50 [3] | Ki [3] | IC50 (Adenosine receptor A2a) | IC50 [4] | IC50 [5] | IC50 [6]

CCc1ccc(CCOc2ccc(CC3SC(=O)NC3=O)cc2)nc1 (stereo not drawn) [PIOGLITAZONE]
Not Active: IC50 [1] | IC50 [2] | IC50 [3] | Ki [3] | IC50 (Adenosine receptor A2a) | IC50 [4] | IC50 [5] | IC50 [6]

CN1CCN(C(c2ccccc2)c2ccccc2)CC1 [CYCLIZINE]
Not Active: IC50 [1] | IC50 [2] | IC50 [3] | Ki [3] | IC50 (Adenosine receptor A2a) | IC50 [4] | IC50 [5] | IC50 [6]

COc1cc(OC)c(C(=O)CCCN2CCCC2)c(OC)c1 [BUFLOMEDIL]
Not Active: IC50 [1] | IC50 [2] | IC50 [3] | Ki [3] | IC50 (Adenosine receptor A2a) | IC50 [4] | IC50 [5] | IC50 [6]

C[C@]12CC[C@H]3[C@@H](CCC4=CC(=O)CC[C@@H]43)[C@@H]1CC[C@@H]2O [NANDROLONE]
Not Active: IC50 [1] | IC50 [2] | IC50 [3] | Ki [3] | IC50 (Adenosine receptor A2a) | IC50 [4] | IC50 [5] | IC50 [6]

CS(=O)(=O)Nc1ccc([N+](=O)[O-])cc1Oc1ccccc1 [NIMESULIDE]
Not Active: IC50 [1] | IC50 [2] | IC50 [3] | Ki [3] | IC50 (Adenosine receptor A2a) | IC50 [4] | IC50 [5] | IC50 [6]

CN1CCC(=C2c3ccccc3CC(=O)c3sccc32)CC1 [KETOTIFEN]
Not Active: IC50 [1] | IC50 [2] | IC50 [3] | Ki [3] | IC50 (Adenosine receptor A2a) | IC50 [4] | IC50 [5] | IC50 [6]

NC12CC3CC(CC(C3)C1)C2 [AMANTADINE]
Not Active: IC50 [1] | IC50 [2] | IC50 [3] | Ki [3] | IC50 (Adenosine receptor A2a) | IC50 [4] | IC50 [5] | IC50 [6]

NC(=O)N1c2ccccc2CC(=O)c2ccccc21 [OXCARBAZEPINE]
Not Active: IC50 [1] | IC50 [2] | IC50 [3] | Ki [3] | IC50 (Adenosine receptor A2a) | IC50 [4] | IC50 [5] | IC50 [6]
